In US11754548B2, “Method of in vitro cellular assay, cell circuit board, and method of manufacturing cell circuit board” (RICOH COMPANY, LTD., priority 2019, dated 2023):

Legend:
[1] = test system: cell population A (Mixed Neurons from Healthy Donor) and cell population B (GABAergic Neurons from Healthy Donor), neural cells derived from iPS cells; experiment: Action potential measurement (MEA, MED64 system) of the cell circuit board with cell populations A and B connected via neurites, and after cutting the neurites, treated with drug (Example 2); format: cell-based
Description: Two types of frozen neural cell which are derived from iPS cells (GABAergic Neurons from Healthy Donor and Mixed Neurons from Healthy Donor) and are commercially available from Elixirgen Scientific were suspended in a medium and plated on a board including an electrode of a multi-electrode array (MEA; SCREEN Holdings Co., Ltd.) coated with 0.05% polyethyleneimine ([…]; manufactured by Sigma) and a 80 μg/mL laminin solution (manufactured by Sigma) in advance. Synchronous firing of the neural cells was checked to be induced by formation of a network after 3 weeks of the culture. A cell population containing more excitable cells and presenting synchronous firing in a short cycle was designated as a cell population A, and a cell population containing many suppressor cells and presenting synchronous firing in a long cycle was designated as a cell population B.
FIG. 4 is a diagram illustrating a test flow in Example 1. First, a board 5 to which partition members 8a and 8b, which are made of dimethylpolysiloxane (PDMS), and frame members 9a and 9b are respectively bonded was prepared so that a region including the cell population A (10) and a region including the cell population B (20) are separated. Next, on the board 5, two types of cell suspension each including the cell population A (10) and the cell population B (20) having different electrophysiological behaviors which were obtained in “1.” were plated in the respective regions surrounded by the frame members 9a and 9b while not mixing these cell populations. In a case where an area of the region was as large as more than 10 mm^2, respective cell suspensions were plated using a micropipette. In a case where an area was as small as 10 mm^2 or less, plating could not be performed manually, and therefore respective cell suspensions were plated using an ink jet bioprinter for cell discharge. […]
The cell population A and the cell population B were cultured for 4 weeks in a state in which they were connected via neurites (a state in which a neural network was formed), and action potentials detectable from the electrodes were measured for 5 minutes with an MED64 system (SCREEN Holdings Co., Ltd.). An electrical waveform was analyzed using software, BurstScope included in the MED64 system. […]
For respective cell populations in “2.” which were treated with the drug, action potentials detectable from the electrodes were measured for 5 minutes with the MED64 system. […]
The neurites between the cell population A and the cell population B were then cut as illustrated in FIG. 4. After cutting, the cells were cultured for 10 minutes in a CO2 incubator and stabilized, and then the action potential was measured again. […]

[2] = test system: cell population A (iCell GABANeurons) and cell population B (GABAergic Neurons from Healthy Donor), neural cells derived from iPS cells; experiment: Action potential measurement (MEA, MED64 system) of the cell circuit board including an inhibitory GABAergic cell population, connected via neurites, treated with drug (Example 4); format: cell-based; conditions: 30 μM final concentration, 10 minutes at 37° C.; populations connected via neurites; FIG. 18
Description: A cell circuit board in which the cell population A and the cell population B were disposed to be spaced apart from each other on the board was prepared using the same method as in Example 1 except that frozen neural cells which are derived from iPS cells (iCell GABANeurons) and are commercially available from Cellular Dynamics International were used as the cell population A, and the same cells as in Example 1 (GABAergic Neurons from Healthy Donor) were used as the cell population B.
Using the same method as in Example 1, at the fourth week of the culture, action potentials detectable from the electrodes were measured for 5 minutes in a state in which the cell population A and the cell population B were connected via neurites. A raster plot that visualizes synchronized firing patterns is illustrated in FIG. 17. In addition, FIG. 16 illustrates a raster plot for visualizing firing patterns of respective cell populations cultured by plating on a board alone.
The mixture was allowed to stand for 10 minutes in a CO2 incubator at 37° C.
For respective cell populations in the above section “3.” which were treated with the drug, action potentials detectable from the electrodes were measured for 5 minutes with the MED64 system. The results are illustrated in FIG. 18.

[3] = 10 μM final concentration, 10 minutes at 37° C., populations A and B connected via neurites, FIG. 8
[4] = 10 μM, neurites between A and B cut, 10 minutes stabilization, FIG. 9

Row | Molecule | firing pattern of the cell population A (short-cycle firing) [1, 3] | synchronization of the firing pattern of cell population A with cell population B [1, 3] | firing pattern of the cell population B after cutting the neurites [1, 4] | synchronous firing period of the cell population A after cutting the neurites [1, 4] | cycle of the synchronous firing pattern compared with before drug treatment [2] | synchronization between cell population A and cell population B [2]
1 | N[C@H](CCCP(=O)(O)O)C(=O)O [D-AP5, D-(−)-2-amino-5-phosphonopentanoic acid] | firing in a short cycle disappeared | became a firing pattern synchronized in the form of the same cycle and peak as those of the cell population B | does not change | greatly prolonged |  | 
2 | picrotoxin |  |  |  |  | significantly shorter cycle than that before the drug treatment | remained synchronized
